“And” between values parts separate entries of the source, which are not always exact repeats. Equal entries are not always repeated.
Legend:
LCK = target: T1, LCK (Homo sapiens, UniProt P06239); assay: KINOMEscan competition binding, LCK; conditions: 10 µM compound; for remaining binding at 10 µM: lower = stronger binding, read-out: LCK %Ctrl @ 10000nM (POC)
T1 construct: DNA label for qPCR read-out (T7 phage fusion or DNA tag); purchased Eurofins DiscoverX Corporation; host or cells: T7 phage in E. coli (BL21-derived) or HEK-293
T1 sequence (P06239 whole entry, the tested form may be a part): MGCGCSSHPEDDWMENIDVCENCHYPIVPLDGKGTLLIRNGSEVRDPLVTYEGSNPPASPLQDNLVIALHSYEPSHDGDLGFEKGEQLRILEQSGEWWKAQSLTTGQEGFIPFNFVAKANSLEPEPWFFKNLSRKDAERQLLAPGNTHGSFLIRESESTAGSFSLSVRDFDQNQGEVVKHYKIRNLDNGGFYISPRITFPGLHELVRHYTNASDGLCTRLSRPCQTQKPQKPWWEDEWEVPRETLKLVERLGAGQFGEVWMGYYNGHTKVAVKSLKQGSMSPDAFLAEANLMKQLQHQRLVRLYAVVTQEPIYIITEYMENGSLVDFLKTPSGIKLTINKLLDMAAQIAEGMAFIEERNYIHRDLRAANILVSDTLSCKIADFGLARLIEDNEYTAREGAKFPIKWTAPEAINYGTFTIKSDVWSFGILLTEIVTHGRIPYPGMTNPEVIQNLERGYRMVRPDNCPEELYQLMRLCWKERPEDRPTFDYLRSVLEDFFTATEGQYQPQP
Procedure: The KINOMEscan screening platform (Eurofins DiscoverX Corporation) was performed using active site-directed competition binding assay to quantitatively measure interactions between BK40143 and BK40197 and more than 450 human kinases and disease relevant mutant variants. […] Screening “hits” are identified by measuring the amount of kinase captured in test (BK40143 and BK40197) versus control samples by using a quantitative and ultra-sensitive qRT-PCR method that detects the associated DNA label. BK40143 and BK40197 were screened at 10 µM concentration, and results for primary screen binding interactions were reported as “% Ctrl” (POC), where lower numbers indicate stronger hits and calculated as follows: [test compound signal−positive control signal/negative control signal−positive control signal]×100
negative control = DMSO (100% Ctrl)
positive control = control compound (0% Ctrl)
Based on screening data from of profiled compounds, a proportional relationship between primary screening results and corresponding compound/target affinities can be described as binding constants (Kd values) for the indicated ranges of POC values with tighter binding (higher affinity) interactions associated with lower POC values and weaker binding (lower affinity) associated with higher POC values. Briefly, kinase-tagged T7 phage strains were grown in parallel in 24-well blocks in an E. coli host derived from the BL21 strain. E. coli were grown to log-phase and infected with T7 phage from a frozen stock (multiplicity of infection = 0.4) and incubated with shaking at 32°C until lysis (90–150 min). The lysates were centrifuged (6,000g) and filtered (0.2 μm) to remove cell debris. The remaining kinases were produced in HEK-293 cells and subsequently tagged with DNA for qRT-PCR detection. Streptavidin-coated magnetic beads were treated with biotinylated small molecule ligands for 30 min at RT to generate affinity resins for kinase assays. The liganded beads were blocked with excess biotin and washed with blocking buffer (1% BSA, 0.05% Tween 20, 1 mM DTT; SeaBlock [Pierce]) to remove unbound ligand and to reduce non-specific phage binding. Binding reactions were assembled by combining kinases, liganded affinity beads, and test compounds in 1x binding buffer (20% 0.17x PBS, 0.05% Tween 20, 6 mM DTT; SeaBlock). Test compounds were prepared as 100x stocks in 100% DMSO and directly diluted into the assay. All reactions were performed in polypropylene 384-well plates in a final volume of 0.02 ml. The assay plates were incubated at RT with shaking for 1 h and the affinity beads were washed with wash buffer (1x PBS, 0.05% Tween 20). […] The kinase concentration in the eluates was measured by qRT-PCR.

[1] = tested on: peripheral mast cells of TgAPP mice; assay: In vivo mast cell analysis (flow cytometry of whole blood, CD117 / FcεR1); design: species or system mouse; key to CD117 (single-labelled mast cells): % of single-labelled (CD117+) mast cells; CD117 Total: unit not given here; conditions: for ratio of immature-to-mature mast cells (c-KIT+ versus c-KIT+/FcεR1α+) in whole blood: TgAPP mice, BK40143 5 mg/kg, BK40197 45 mg/kg, 6 wk, vs DMSO
Excerpt: c-KIT is responsible for mast cell development and homeostasis ([Lake et al, 1978]; [Linnekin, 1999]; [Kitamura et al, 2006]). TKs are the central driving force for processes leading to mast cell activation ([Parravicini et al, 2002]; [Gomez et al, 2005]). Multiple receptors are capable of mediating or modifying mast cell activation ([Kraft & Kinet, 2007]; [Kuehn & Gilfillan, 2007]), the major receptor responsible being FcεRI, the high affinity receptor for immunoglobulin E (IgE) ([Rivera & Gilfillan, 2006]). Mast cells are tissue-resident cells of hematopoietic lineage which are derived from CD13^+CD34^+KIT(CD117)^+ bone marrow pluripotent progenitors ([Kirshenbaum et al, 1999]). Although mast cells play an important role in the innate immune system ([Marshall, 2004]; [Galli et al, 2005]), these cells are also responsible for the detrimental exaggerated reactions to antigen ([Galli et al, 2008]) that follow the release of potent inflammatory mediators as a consequence of receptor-mediated mast cell activation ([Metcalfe et al, 1997]). The progression of these cells to fully mature mast cells is dependent on c-KIT activation which occurs because of stem cell factor-induced c-KIT dimerization and auto-phosphorylation ([Kirshenbaum et al, 1999]). To verify the functional effects of BK40143 and BK40197 on c-KIT inhibition, we investigated whether inhibition of c-KIT with BK40143 and BK40197 affects peripheral mast cell populations in vivo. We collected whole blood samples from Tg(SwDI) (referred to as TgAPP) mice treated with 5 or 45 mg/kg of each drug, respectively, or DMSO for 6 wk before isolating mast cells for analysis via flow cytometry (Fig 3A–C). Whole blood was sorted for mast cells using a triple gating strategy: 647 anti-CD45 to isolate leukocytes, PE anti-c-KIT to isolate mast cells, and APC/fire anti-FcεR1α to identify mature mast cells. The ratio of immature-to-mature mast cells (c-KIT+ versus c-KIT+/ FcεR1α+) was compared between c-KIT inhibited and DMSO-treated controls to determine the functional consequence of c-KIT inhibition on peripheral mast cell maturation.
Whole blood samples were harvested from the right ventricle of treated and untreated mice and added to 1,000 U/ml heparin-coated tubes to prevent coagulation. 100 μl of blood was then treated with three flow-conjugated antibodies: 647 anti-mouse CD45 (cat. #103123; BioLegend), PE anti-mouse CD117 (c-KIT) (cat. # 105807; BioLegend), and APC/fire 750 anti-mouse FcεR1α (cat. #134339; BioLegend) for 30 min, then treated with 1x RBC lysis buffer (cat. #420301; BioLegend) for 20 min. Cells were washed and resuspended in cell staining buffer before being analyzed on a Becton Dickinson LSRFortessas flow cytometer. Immature-to-mature mast cell ratio was calculated by dividing the percentage of single-labelled (CD117+) mast cells by the total number of c-KIT expressing cells (CD117+ plus CD117+ FcεR1+). All animal work was approved by Georgetown University Animal Care and Use Committee (GUACUC).

[2] = 5mg/kg, whole blood, individual mice

Compound	inhibition at 10 µM (LCK) [%]	remaining binding at 10 µM (LCK) [%]	CD117 (single-labelled mast cells) [1, 2]	CD117 / Total (immature-to-mature mast cell ratio) [1, 2]	CD117/FcER1 (double-labelled mast cells) [1, 2]	CD117 Total [1, 2]	ratio of immature-to-mature mast cells (c-KIT+ versus c-KIT+/FcεR1α+) in whole blood [1]
Cc1cccc(-c2cc3nccc(Nc4ccccc4)c3s2)c1 [BK40143]	92.9	7.1	1.06 and 0.7 and 1.08 and 1.14 and 0.83 and 6.55 and 2.98	0.9815 and 0.9589 and 0.9231 and 0.9661 and 0.9881 and 0.9278 and 0.9141	0.02 and 0.03 and 0.09 and 0.04 and 0.01 and 0.51 and 0.28	1.08 and 0.73 and 1.17 and 1.18 and 0.84 and 7.06 and 3.26	significantly greater ratio of immature-to-mature mast cells
Cc1cccc(-c2cc3nccc(N4CCOCC4)c3s2)c1 [BK40197]	9	91	–	–	–	–	not statistically significant (P = 0.07) increase in immature-to-mature mast cell ratio

From article PMC11249953, “c-KIT inhibitors reduce pathology and improve behavior in the Tg(SwDI) model of Alzheimer’s disease” (Life Science Alliance, 2024)
